Results on seven molecules are retold here after US9044491B2, “Method for improving blood flow using stilbenoid derivatives” (The Board of Trustees of the University of Arkansas, priority 2010, dated 2015).

Data set [1] has as its system CLP or Control (Sham) mice. Kind of data set: Renal arterial blood flow by Doppler flow probe. It is filed as in vivo, mouse. The note with it: CPL-treated mice. The text has this:
Under isoflurane anesthesia, the right kidney was exposed by flank incision and the renal artery and vein were carefully dissected from surrounding tissue with Dumont-5 forceps. The renal artery was isolated from the vein and a Transonic Systems (Ithaca, N.Y.) 0.5 PSL renal artery Doppler flow probe was positioned around the renal artery. The probe was calibrated in water using the zero and scale settings on the TS420 flowmeter (Transonic Systems). […] Body temperature was maintained at 36 to 37° C. with a heating lamp. Data were expressed in ml/min/g kidney weight.
Renal blood flow was measured essentially as described above in Example 10 following CPL surgery or control treatment (no surgery). CPL-treated mice were administered 10 mg/kg of resveratrol, 2.5 mg/kg of resveratrol-3-sulfate, or vehicle. […] In fact, resveratrol-3-sulfate produced the same degree of reversal at 25% of the dose of resveratrol.

For data set [2], the target named is T1, CB1 receptors (Mus musculus, UniProt P47746).
T1 construct: from tissue; host or cells: mouse brain membranes
T1 sequence (P47746 whole entry): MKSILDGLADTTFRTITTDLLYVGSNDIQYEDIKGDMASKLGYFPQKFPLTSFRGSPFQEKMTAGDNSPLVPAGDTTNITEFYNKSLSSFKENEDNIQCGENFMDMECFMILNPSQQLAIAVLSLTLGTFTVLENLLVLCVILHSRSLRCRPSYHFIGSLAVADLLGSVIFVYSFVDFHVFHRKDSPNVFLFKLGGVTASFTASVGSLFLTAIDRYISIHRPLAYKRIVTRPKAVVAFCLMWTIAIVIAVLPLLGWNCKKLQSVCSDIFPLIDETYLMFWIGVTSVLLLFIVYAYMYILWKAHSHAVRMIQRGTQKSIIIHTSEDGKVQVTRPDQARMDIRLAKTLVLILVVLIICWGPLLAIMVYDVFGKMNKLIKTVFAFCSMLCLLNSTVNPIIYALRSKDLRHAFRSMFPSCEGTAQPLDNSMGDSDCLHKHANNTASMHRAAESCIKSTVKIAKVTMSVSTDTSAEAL
The class given is biochemical.

The next data set has as its target T2, human CB2 (Homo sapiens, UniProt P34972).
T2 construct: expressed in transfected cells; host or cells: CHO cells stably transformed with human CB2
Kind of data set: CB2 binding, 3H-CP 55,940 displacement in CHO-hCB2 membranes. Particulars: 0.2 nM 3H-CP 55,940.

The subject of data set [3] is CB1 receptors. The class given is biochemical, mouse. Particulars: 10 μM compound, 30 min at 30° C.
The target in the next data set is T3, human UGT1A1 (Homo sapiens, UniProt P22309).
T3 sequence (P22309 26-533): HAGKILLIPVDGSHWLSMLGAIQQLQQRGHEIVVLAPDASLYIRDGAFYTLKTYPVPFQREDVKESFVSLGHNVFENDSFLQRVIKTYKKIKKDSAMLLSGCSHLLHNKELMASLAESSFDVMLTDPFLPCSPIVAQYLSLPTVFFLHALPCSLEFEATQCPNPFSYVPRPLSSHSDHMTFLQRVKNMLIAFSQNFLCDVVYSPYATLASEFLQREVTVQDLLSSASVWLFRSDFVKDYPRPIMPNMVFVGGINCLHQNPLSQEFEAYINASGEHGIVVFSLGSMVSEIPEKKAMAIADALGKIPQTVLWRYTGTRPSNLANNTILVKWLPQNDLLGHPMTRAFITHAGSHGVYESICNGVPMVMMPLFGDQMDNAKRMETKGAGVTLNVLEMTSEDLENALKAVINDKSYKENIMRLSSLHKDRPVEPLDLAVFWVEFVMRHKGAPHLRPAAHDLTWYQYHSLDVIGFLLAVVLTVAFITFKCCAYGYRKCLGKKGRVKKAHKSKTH
The experiment in a line: Glucuronidation by recombinant human UGT1A1 (activity and kinetic constants).

Another data set has as its target T4, human UGT1A10 (Homo sapiens, UniProt Q9HAW8).
T4 sequence (Q9HAW8 26-530): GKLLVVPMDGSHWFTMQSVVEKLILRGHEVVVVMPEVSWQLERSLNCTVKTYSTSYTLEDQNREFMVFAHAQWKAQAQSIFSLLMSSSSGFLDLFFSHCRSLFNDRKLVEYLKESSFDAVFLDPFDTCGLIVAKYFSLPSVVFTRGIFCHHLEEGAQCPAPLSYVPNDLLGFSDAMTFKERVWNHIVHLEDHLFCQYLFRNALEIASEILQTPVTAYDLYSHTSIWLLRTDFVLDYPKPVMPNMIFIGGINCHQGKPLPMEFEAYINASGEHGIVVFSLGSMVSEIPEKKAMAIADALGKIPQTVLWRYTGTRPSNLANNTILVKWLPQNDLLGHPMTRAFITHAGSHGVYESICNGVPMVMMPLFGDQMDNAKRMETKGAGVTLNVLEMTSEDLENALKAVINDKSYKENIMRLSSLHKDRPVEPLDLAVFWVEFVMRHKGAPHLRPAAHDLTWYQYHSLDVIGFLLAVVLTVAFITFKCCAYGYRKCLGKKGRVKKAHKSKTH
Kind of data set: Glucuronidation by recombinant human UGT1A10 (activity and kinetic constants).

The test system of data set [4] is human intestinal microsomes. The experiment in a line: Glucuronidation by human intestinal microsomes. It is filed as in vitro ADME. Particulars: substrate 250 μM, UDP-GlcUA 4 mM. Here is the method: Glucuronidation products were analyzed by HPLC and LCMS/MS.
Data set [5] addresses T1, CB1 receptors. Kind of data set: CB1 binding, 3H-CP 55,940 displacement in mouse brain membranes. Particulars: isoprenyl group and additional hydroxyl group.
Experimental: (§1) Membrane preparations were prepared from mouse brain to examine CB1 binding. For CB2 binding, membrane preparations were prepared from CHO cells stably transformed with human CB2.

Like-named read-outs stand apart in the source and are kept apart here.

As usually defined, the Ki is the equilibrium dissociation constant of an inhibitor or competing ligand from its target. A higher Ki goes with lower affinity.

T2 sequence (P34972 whole entry): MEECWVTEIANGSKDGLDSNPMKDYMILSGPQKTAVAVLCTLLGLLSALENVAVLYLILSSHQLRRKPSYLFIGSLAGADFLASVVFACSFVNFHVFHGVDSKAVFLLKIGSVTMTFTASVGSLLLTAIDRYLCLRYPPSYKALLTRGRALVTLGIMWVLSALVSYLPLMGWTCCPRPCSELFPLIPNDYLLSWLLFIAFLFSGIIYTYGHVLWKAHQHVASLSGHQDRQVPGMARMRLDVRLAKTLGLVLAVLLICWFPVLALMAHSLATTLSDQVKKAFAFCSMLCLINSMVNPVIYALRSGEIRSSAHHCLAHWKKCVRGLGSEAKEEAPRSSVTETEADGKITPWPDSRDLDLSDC
Experimental for human CB2: as §1
Experimental for human UGT1A10: Eight human recombinant UGT1A isoforms (UGT1A1, 1A3, 1A4, 1A6, 1A7, 1A8, 1A9, and 1A10; 5 μg) expressed as His-tag proteins in baculovirus-infected Sf9 insect cells and human liver microsomes (from one donor; HL2; 50 μg) and human intestinal microsomes (from two donors; HI36 and HI41; 50 μg) were evaluated for their ability to glucuronidate these four compounds. The concentrations of the substrate and co-substrate (i.e., UDP-GlcUA) were 250 μM and 4 mM, respectively. Glucuronidation products were analyzed by HPLC and LCMS/MS.
The kinetic constants of the glucuronidation reactions using recombinant human UGT1A1 and UGT1A10 were determined by measuring the enzyme activity in the presence of increasing concentrations of substrate (see FIG. 2).

For the molecule `O=S(=O)(O)Oc1cc(O)cc(C=Cc2ccc(O)cc2)c1` [resveratrol-3-sulfate], the “dose producing the same degree of reversal, relative to resveratrol” value in data set [1] was 25 % of the dose of resveratrol. The renal blood flow result in data set [1] (2.5 mg/kg (Example 15)) is on record as “increased blood flow”.
For `CCCCCCC(C)(C)c1ccc([C@@H]2C[C@H](O)CC[C@H]2CCCO)c(O)c1` [CP-55,940], the G-protein activity result on CB1 receptors [2] (1 μM compound, 30 min at 30° C.) is reported as “stimulated”. Further, on CB1 receptors [2] (CP-55,940 alone), the “maximal response produced by CP-55,940” value was determined as 0.34±0.03 pmole/mg protein. Moreover, the EC50 at CB1 receptors [2] (CP-55,940 alone, read-out: ED50 required to activate G-proteins) worked out at 4.3 nM.
With `O=C(O)[C@H]1O[C@@H](Oc2cc(O)cc(/C=C/c3ccc(O)c(O)c3)c2)[C@H](O)[C@@H](O)[C@@H]1O` [3-Gluc-tPice], on human CB2, the Ki is over 100000 nM.
For `CC(C)/C=C/c1c(O)cc(/C=C/c2ccc(O)cc2)cc1O` [tA3, trans-arachidin-3], the EC50 at CB1 receptors [2] (in the presence of 30 μM tA-3, read-out: ED50 of CP-55,940 required to activate G-proteins) is 127 nM. The “basal G-protein activity” value in the data set on CB1 receptors [3] is reported as “little effect”. Moreover, the Kinetics entry on human UGT1A1 (product 3-glucuronide (3G)) is recorded as “M-M”; on human UGT1A1 (product 4′-glucuronide (4′G)) it was “M-M”; at human UGT1A10 (product 4′-glucuronide (4′G)) it was “USI”. In addition, the “kinetics of 4′-O-Gluc formation by UGT1A10” value at human UGT1A10 is listed as “substrate inhibition kinetics”.
Regarding trans-arachidin-1 [tA1], the “production of 3G glucuronide by HIM” value in data set [4] is on record as “large amount”. In addition, on CB1 receptors [5], the “enhancement of binding affinity for CB1” value is given as 2 fold. In addition, on CB1 receptors [2] (in the presence of 10 μM tA-1), the “maximal response produced by CP-55,940” value came out at 0.22±0.04 pmole/mg protein. The EC50 at CB1 receptors [2] (in the presence of 10 μM tA-1, read-out: ED50 of CP-55,940 required to activate G-proteins) turned out to be 28 nM. For the same molecule, the “basal G-protein activity” value in the data set on CB1 receptors [3] is “markedly reduced”. In addition, the “kinetics of 4′-O-Gluc formation by UGT1A10” value on human UGT1A10 is recorded as “substrate inhibition kinetics”. The Kinetics entry at human UGT1A10 (product 4′-glucuronide (4′G)) is recorded as “USI”.
Consider `O=C(O)[C@H]1O[C@@H](Oc2ccc(/C=C/c3cc(O)cc(O)c3)cc2)[C@H](O)[C@@H](O)[C@@H]1O` [4′-Gluc-rRes], for which, at human CB2, the Ki is over 100000 nM.
Turning to `Oc1cc(O)cc(/C=C/c2ccc(O)c(O)c2)c1` [tPice, trans-piceatannol], the affinity at human CB2, expressed as Ki, was 114000 ± 7800 nM. The “basal G-protein activity” value with CB1 receptors [3] is recorded as “markedly reduced”. In addition, the Kinetics entry is “M-M” on human UGT1A1 (product 3-glucuronide (3G)), “M-M” at human UGT1A1 (product 4′-glucuronide (4′G)), “M-M” on human UGT1A10 (product 3-glucuronide (3G)) and “Hill” at human UGT1A10 (product 4′-glucuronide (4′G)). Also, the “n (Hill coeff)” value at human UGT1A10 (product 4′-glucuronide (4′G)) stood at 1.7.
